The supplement of paper PMC13207355
± gives the standard deviation of the averaged measurements.

What was measured:
Conditions in all cases: exposure time: 72 h
[1] = test system: E57 (patient-derived glioblastoma stem cells of mesenchymal subtype); assay: phenotypic distance (Euclidean, principal components) from DMSO controls (arbitrary units); higher = stronger morphological change
[2] = test system: E28 (patient-derived glioblastoma stem cells of classical subtype); assay: as above
[3] = test system: E21 (patient-derived glioblastoma stem cells of mesenchymal subtype); assay: as above
[4] = test system: FT3469 (normal neural stem cell line); assay: as above
[5] = test system: E31 (patient-derived glioblastoma stem cells of proneural subtype); assay: as above
[6] = test system: E34 (patient-derived glioblastoma stem cells of proneural subtype); assay: as above
[7] = test system: E13 (patient-derived glioblastoma stem cells of classical subtype); assay: as above
[8] = test system: E57; assay: surviving fraction (nuclei count normalised to DMSO); higher = more cells surviving (less toxic)
[9] = test system: E28; assay: as above
[10] = test system: E21; assay: as above
[11] = test system: FT3469; assay: as above
[12] = test system: E34; assay: as above
[13] = test system: E13; assay: as above
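For phenotypic distance (Euclidean, principal components) from DMSO controls in this document: cell Painting imaging in 384-well plates, CellProfiler features reduced to at least 20 principal components, Euclidean distance versus same-plate DMSO vehicle wells (0.1% v/v), median over six images per well.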
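For surviving fraction (nuclei count normalised to DMSO) in this document: nuclei counted by high-content imaging of Hoechst-stained cells in laminin-coated 384-well plates, relative to 0.1% DMSO vehicle wells, with staurosporine as cell-death control.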

CCC(C)(C)C(=O)O[C@H]1C[C@@H](C)C=C2C=C[C@H](C)[C@H](CC[C@@H]3C[C@@H](O)CC(=O)O3)[C@H]21 [Simvastatin]
phenotypic distance
Conditions | [1] | [2] | [3] | [4] | [5] | [6] | [7]
4.1 nM | 1.7 | 1.08 | 1.6 | 1.31 | 0.808 | 1.5 | 0.99
12.3 nM | 0.806 | 1.13 | 1.96 | 1.32 | 0.911 | 1.01 | 0.654
37 nM | 1.4 | 1.19 | 2.52 | 2.33 | 0.566 | 0.739 | 1.13
111.1 nM | 0.799 | 1.42 | 2.77 | 1.86 | 1.39 | 0.945 | 1.23
333.3 nM | 1.19 | 1.61 | 4.05 | 2.21 | 1 | 1.16 | 2.27
1000 nM | 1.46 | 1.56 | 4.54 | 2.66 | 0.996 | 0.529 | 2.58
3000 nM | 3.54 | 3.67 | 5.96 | 3.39 | 3.45 | 1.72 | 4.02

COc1cc2c(NC3CCN(C(C)C)CC3)nc(C3CCCCC3)nc2cc1OCCCN1CCCC1 [UNC0638]
Conditions | phenotypic distance | surviving fraction
[1], 4.1 nM | 0.284 ± 0.097 | –
[1], 12.3 nM | 0.449 ± 0.097 | –
[1], 37 nM | 0.421 ± 0.22 | –
[1], 111.1 nM | 0.484 ± 0.01 | –
[1], 333.3 nM | 0.486 ± 0.04 | –
[1], 1000 nM | 0.443 ± 0.059 | –
[1], 3000 nM | 1.09 ± 0.84 | –
[2], 4.1 nM | 0.389 ± 0.055 | –
[2], 12.3 nM | 0.447 ± 0.013 | –
[2], 37 nM | 0.394 ± 0.089 | –
[2], 111.1 nM | 0.488 ± 0.12 | –
[2], 333.3 nM | 0.53 ± 0.16 | –
[2], 1000 nM | 0.586 ± 0.16 | –
[2], 3000 nM | 1.38 ± 0.079 | –
[3], 4.1 nM | 0.389 ± 0.17 | –
[3], 12.3 nM | 0.354 ± 0.025 | –
[3], 37 nM | 0.463 ± 0.036 | –
[3], 111.1 nM | 1.99 ± 1.9 | –
[3], 333.3 nM | 0.574 ± 0.19 | –
[3], 1000 nM | 0.957 ± 0.4 | –
[3], 3000 nM | 2.1 ± 1.1 | –
[4], 4.1 nM | 0.514 ± 0.037 | –
[4], 12.3 nM | 0.766 ± 0.21 | –
[4], 37 nM | 0.527 ± 0.14 | –
[4], 111.1 nM | 0.558 ± 0.044 | –
[4], 333.3 nM | 0.523 ± 0.12 | –
[4], 1000 nM | 0.714 ± 0.2 | –
[4], 3000 nM | 3.19 ± 1.4 | –
[6], 4.1 nM | 0.461 ± 0.039 | –
[6], 12.3 nM | 0.632 ± 0.034 | –
[6], 37 nM | 0.627 ± 0.069 | –
[6], 111.1 nM | 0.646 ± 0.2 | –
[6], 333.3 nM | 0.795 ± 0.19 | –
[6], 1000 nM | 0.627 ± 0.16 | –
[6], 3000 nM | 0.864 ± 0.011 | –
[7], 4.1 nM | 0.43 ± 0.14 | –
[7], 12.3 nM | 0.523 ± 0.047 | –
[7], 37 nM | 0.48 ± 0.18 | –
[7], 111.1 nM | 0.587 ± 0.021 | –
[7], 333.3 nM | 0.476 ± 0.11 | –
[7], 1000 nM | 0.582 ± 0.19 | –
[7], 3000 nM | 1.57 ± 1.5 | –
[8], 4.1 nM | – | 1.03 ± 0.0031
[8], 12.3 nM | – | 1.02 ± 0.035
[8], 37 nM | – | 1.084 ± 0.0082
[8], 111.1 nM | – | 1.01 ± 0.046
[8], 333.3 nM | – | 1.0497 ± 0.00039
[8], 1000 nM | – | 1.08 ± 0.036
[8], 3000 nM | – | 1.05 ± 0.12
[9], 4.1 nM | – | 1.03 ± 0.059
[9], 12.3 nM | – | 0.988 ± 0.021
[9], 37 nM | – | 1.01 ± 0.04
[9], 111.1 nM | – | 1.01 ± 0.13
[9], 333.3 nM | – | 0.967 ± 0.024
[9], 1000 nM | – | 1.03 ± 0.03
[9], 3000 nM | – | 0.942 ± 0.11
[10], 4.1 nM | – | 0.976 ± 0.025
[10], 12.3 nM | – | 0.999 ± 0.021
[10], 37 nM | – | 1.11 ± 0.078
[10], 111.1 nM | – | 1.02 ± 0.056
[10], 333.3 nM | – | 0.976 ± 0.057
[10], 1000 nM | – | 0.933 ± 0.043
[10], 3000 nM | – | 0.808 ± 0.079
[11], 4.1 nM | – | 1.03 ± 0.046
[11], 12.3 nM | – | 1.02 ± 0.1
[11], 37 nM | – | 0.961 ± 0.01
[11], 111.1 nM | – | 0.975 ± 0.035
[11], 333.3 nM | – | 0.953 ± 0.046
[11], 1000 nM | – | 0.929 ± 0.08
[11], 3000 nM | – | 0.864 ± 0.018
[12], 4.1 nM | – | 0.998 ± 0.042
[12], 12.3 nM | – | 1.1 ± 0.037
[12], 37 nM | – | 1.082 ± 0.0079
[12], 111.1 nM | – | 1.07 ± 0.13
[12], 333.3 nM | – | 1.15 ± 0.087
[12], 1000 nM | – | 1.07 ± 0.028
[12], 3000 nM | – | 0.964 ± 0.085
[13], 4.1 nM | – | 0.973 ± 0.052
[13], 12.3 nM | – | 0.986 ± 0.072
[13], 37 nM | – | 0.987 ± 0.044
[13], 111.1 nM | – | 0.957 ± 0.046
[13], 333.3 nM | – | 1.01 ± 0.06
[13], 1000 nM | – | 0.938 ± 0.075
[13], 3000 nM | – | 0.894 ± 0.052
